# In US10131652B2, “Pyrimidinyloxy benzene derivatives as herbicides” (E. I. DU PONT DE NEMOURS AND COMPANY, priority 2014, dated 2018):
# Where two headings read alike, the source gives them in different places.
# Columns and labels:
# Assay in all cases: Test F pre-/postemergence plant response
# Assay type in all cases: in vivo
# [1] = system: arrowleaf sida (Sida rhombifolia); conditions: Sida rhombifolia, scale 0 to 100, read-out: Plant response rating, Arrowleaf Sida
# Procedure, shortened: (§1)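 Formulation: non-phytotoxic solvent mix + surfactant. Preemergence: applied to seeded silt loam. Postemergence: foliar, 1- to 4-leaf plants, 2–18 cm. Greenhouse hold 14–21 days; visual score vs controls, 0 = no effect, 100 = complete control; dash = not tested.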
# [2] = system: corn (Zea mays); conditions: Zea mays, scale 0 to 100
# Procedure, shortened: as §1
# [3] = system: fall panicum (Panicum dichotomiflorum); conditions: Panicum dichotomiflorum, scale 0 to 100, read-out: Plant response rating, Panicum, Fall
# Procedure, shortened: as §1
# [4] = system: field bindweed (Convolvulus arvensis); conditions: Convolvulus arvensis, scale 0 to 100, read-out: Plant response rating, Field Bindweed
# Procedure, shortened: as §1
# [5] = system: giant foxtail (Setaria faberii); conditions: Setaria faberi, pre-emergence, scale 0 to 100, read-out: Plant response rating, Foxtail, Giant
# Procedure, shortened: as §1
# [6] = system: goosegrass (Eleusine indica); conditions: Eleusine indica, pre-emergence, scale 0 to 100, read-out: Plant response rating, Goosegrass
# Procedure, shortened: as §1
# [7] = system: kochia (Kochia scoparia); conditions: Bassia scoparia, pre-emergence, scale 0 to 100, read-out: Plant response rating, Kochia
# Procedure, shortened: as §1
# [8] = system: palmer pigweed (Amaranthus palmeri); conditions: Amaranthus palmeri, post-emergence, scale 0 to 100, read-out: Plant response rating, Pigweed, Palmer
# Procedure, shortened: as §1
# [9] = system: soybean (Glycine max); conditions: Glycine max, scale 0 to 100, read-out: Plant response rating, Soybean
# Procedure, shortened: as §1
# [10] = system: surinam grass (Brachiaria decumbens); conditions: Urochloa decumbens, pre-emergence, scale 0 to 100, read-out: Plant response rating, Surinam Grass
# Procedure, shortened: as §1
# [11] = system: velvetleaf (Abutilon theophrasti); conditions: Abutilon theophrasti, pre-emergence, scale 0 to 100, read-out: Plant response rating, Velvetleaf
# Procedure, shortened: as §1
# [12] = post-emergence, 8 g ai/ha Postemergence
# [13] = post-emergence, 16 g ai/ha Postemergence
# [14] = post-emergence, 31 g ai/ha Postemergence
# [15] = post-emergence, 62 g ai/ha Postemergence
# [16] = post-emergence, 125 g ai/ha Postemergence
# [17] = pre-emergence, 8 g ai/ha Preemergence
# [18] = pre-emergence, 16 g ai/ha Preemergence
# [19] = pre-emergence, 31 g ai/ha Preemergence
# [20] = pre-emergence, 62 g ai/ha Preemergence
# [21] = pre-emergence, 125 g ai/ha Preemergence
smiles,measurement,setting,value
"FC(F)c1cc(-c2ccccc2Oc2ncc(Cl)cn2)no1 [Compound 35, 5-chloro-2-[2-[5-(difluoromethyl)-3-isoxazolyl]phenoxy]pyrimidine]",pest or weed control at 8 g/ha,[1]; [12],60%
same,pest or weed control at 16 g/ha,[1]; [13],80%
same,pest or weed control at 31 g/ha,[1]; [14],95%
same,pest or weed control at 62 g/ha,[1]; [15],98%
same,pest or weed control at 125 g/ha,[1]; [16],98%
same,pest or weed control at 8 g/ha,[1]; [17],50%
same,pest or weed control at 16 g/ha,[1]; [18],80%
same,pest or weed control at 31 g/ha,[1]; [19],100%
same,pest or weed control at 62 g/ha,[1]; [20],100%
same,pest or weed control at 125 g/ha,[1]; [21],100%
same,"Corn plant response rating (crop injury, 0 = no effect, 100 = complete kill) at 8 g/ha",[2]; [12],10%
same,"Corn plant response rating (crop injury, 0 = no effect, 100 = complete kill) at 16 g/ha",[2]; [13],10%
same,"Corn plant response rating (crop injury, 0 = no effect, 100 = complete kill) at 31 g/ha",[2]; [14],15%
same,"Corn plant response rating (crop injury, 0 = no effect, 100 = complete kill) at 62 g/ha",[2]; [15],15%
same,"Corn plant response rating (crop injury, 0 = no effect, 100 = complete kill) at 125 g/ha",[2]; [16],20%
same,"Corn plant response rating (crop injury, 0 = no effect, 100 = complete kill) at 8 g/ha",[2]; [17],0%
same,"Corn plant response rating (crop injury, 0 = no effect, 100 = complete kill) at 16 g/ha",[2]; [18],0%
same,"Corn plant response rating (crop injury, 0 = no effect, 100 = complete kill) at 31 g/ha",[2]; [19],30%
same,"Corn plant response rating (crop injury, 0 = no effect, 100 = complete kill) at 62 g/ha",[2]; [20],0%
same,"Corn plant response rating (crop injury, 0 = no effect, 100 = complete kill) at 125 g/ha",[2]; [21],20%
same,pest or weed control at 8 g/ha,[3]; [12],30%
same,pest or weed control at 16 g/ha,[3]; [13],40%
same,pest or weed control at 31 g/ha,[3]; [14],40%
same,pest or weed control at 62 g/ha,[3]; [15],50%
same,pest or weed control at 125 g/ha,[3]; [16],50%
same,pest or weed control at 8 g/ha,[3]; [17],0%
same,pest or weed control at 16 g/ha,[3]; [18],35%
same,pest or weed control at 31 g/ha,[3]; [19],100%
same,pest or weed control at 125 g/ha,[3]; [21],100%
same,pest or weed control at 62 g/ha,"[3]; pre-emergence, Preemergence",100%
same,pest or weed control at 8 g/ha,[4]; [12],20%
same,pest or weed control at 16 g/ha,[4]; [13],30%
same,pest or weed control at 31 g/ha,[4]; [14],35%
same,pest or weed control at 62 g/ha,[4]; [15],50%
same,pest or weed control at 125 g/ha,[4]; [16],70%
same,pest or weed control at 8 g/ha,[4]; [17],0%
same,pest or weed control at 16 g/ha,[4]; [18],35%
same,pest or weed control at 31 g/ha,[4]; [19],50%
same,pest or weed control at 62 g/ha,[4]; [20],50%
same,pest or weed control at 125 g/ha,[4]; [21],50%
same,pest or weed control at 8 g/ha,[5]; 8 g ai/ha Preemergence,0%
same,pest or weed control at 16 g/ha,[5]; 16 g ai/ha Preemergence,10%
same,pest or weed control at 31 g/ha,[5]; 31 g ai/ha Preemergence,70%
same,pest or weed control at 62 g/ha,[5]; 62 g ai/ha Preemergence,70%
same,pest or weed control at 125 g/ha,[5]; 125 g ai/ha Preemergence,100%
same,pest or weed control at 8 g/ha,[6]; 8 g ai/ha Preemergence,0%
same,pest or weed control at 16 g/ha,[6]; 16 g ai/ha Preemergence,0%
same,pest or weed control at 31 g/ha,[6]; 31 g ai/ha Preemergence,60%
same,pest or weed control at 125 g/ha,[6]; 125 g ai/ha Preemergence,95%
same,pest or weed control at 62 g/ha,[6]; Preemergence,75%
same,pest or weed control at 8 g/ha,[7]; 8 g ai/ha Preemergence,0%
same,pest or weed control at 16 g/ha,"[7]; 16 g ai/ha, Preemergence",40%
same,pest or weed control at 31 g/ha,"[7]; 31 g ai/ha, Preemergence",85%
same,pest or weed control at 125 g/ha,"[7]; 125 g ai/ha, Preemergence",100%
same,pest or weed control at 62 g/ha,[7]; Preemergence,100%
same,pest or weed control at 8 g/ha,[8]; 8 g ai/ha Postemergence,60%
same,pest or weed control at 16 g/ha,[8]; 16 g ai/ha Postemergence,75%
same,pest or weed control at 31 g/ha,[8]; 31 g ai/ha Postemergence,95%
same,pest or weed control at 62 g/ha,[8]; 62 g ai/ha Postemergence,100%
same,pest or weed control at 125 g/ha,[8]; 125 g ai/ha Postemergence,100%
same,plant injury at 8 g/ha,[9]; [12],70%
same,plant injury at 16 g/ha,[9]; [13],80%
same,plant injury at 31 g/ha,[9]; [14],85%
same,plant injury at 62 g/ha,[9]; [15],95%
same,plant injury at 125 g/ha,[9]; [16],98%
same,plant injury at 8 g/ha,[9]; [17],0%
same,plant injury at 16 g/ha,[9]; [18],35%
same,plant injury at 31 g/ha,[9]; [19],40%
same,plant injury at 125 g/ha,[9]; [21],90%
same,plant injury at 62 g/ha,"[9]; pre-emergence, Preemergence",70%
same,pest or weed control at 8 g/ha,[10]; 8 g ai/ha Preemergence,0%
same,pest or weed control at 16 g/ha,[10]; 16 g ai/ha Preemergence,0%
same,pest or weed control at 31 g/ha,[10]; 31 g ai/ha Preemergence,0%
same,pest or weed control at 125 g/ha,[10]; 125 g ai/ha Preemergence,35%
same,pest or weed control at 62 g/ha,[10]; Preemergence,20%
same,pest or weed control at 8 g/ha,[11]; 8 g ai/ha Preemergence,40%
same,pest or weed control at 16 g/ha,[11]; 16 g ai/ha Preemergence,70%
same,pest or weed control at 31 g/ha,[11]; 31 g ai/ha Preemergence,70%
same,pest or weed control at 125 g/ha,[11]; 125 g ai/ha Preemergence,100%
same,pest or weed control at 62 g/ha,[11]; Preemergence,100%
